Patent US20160199351A1, “COMPOSITIONS AND METHODS FOR INHIBITING FUNGAL INFECTIONS” (priority 2015, published 2016)
≈ marks a conversion by molar mass, not a printed value. Where two headings read alike, the source gives them in different places.

Key:
C. parapsilosis = experiment: MIC against Candida species (Table 4); details: 48 h
C. krusei = experiment: MIC against Candida species (Table 4); details: Pichia kudriavzevii; for MIC: read-out: MIC 100%
C. glabrata = experiment: MIC against Candida species (Table 4); details: for MIC50 / MIC: Nakaseomyces glabratus; for MIC: read-out: MIC 100%
Pneumocystis carinii = experiment: In vitro ATP content of Pneumocystis (luciferin-luciferase assay); details: for IC50: Pneumocystis carinii, read-out: IC50 (reduction in ATP)

NCC(=O)Nc1ccc(-n2nc(C(F)(F)F)cc2-c2ccc3c(ccc4ccccc43)c2)cc1 [AR-12, 2-amino-N-(4-(5-(phenanthren-2-yl)-3-(trifluoromethyl)-1H-pyrazol-1-yl)phenyl)acetamide] showed an MIC (C. parapsilosis; read-out: MIC 100%, isolate CP-1, 48 hrs) of 4 µg/mL (≈ 8.69 µM), an MIC (C. parapsilosis; read-out: MIC 100%, isolate CP-2, 48 hrs) of 4 µg/mL (≈ 8.69 µM) and an MIC (C. parapsilosis; read-out: MIC 100%, isolate CP-3, 48 hrs) of 4 µg/mL (≈ 8.69 µM). The MIC (C. parapsilosis; read-out: MIC 100%, isolate CP-4, 48 hrs) was 4 µg/mL (≈ 8.69 µM), the MIC (C. parapsilosis; read-out: MIC 100%, isolate CP-5, 48 hrs) was 4 µg/mL (≈ 8.69 µM) and the MIC (C. parapsilosis; read-out: MIC 100%, isolate CP-6, 48 hrs) was 4 µg/mL (≈ 8.69 µM). The MIC (C. parapsilosis; read-out: MIC 100%, isolate CP-7, 48 hrs) was 4 µg/mL (≈ 8.69 µM), the MIC (C. parapsilosis; read-out: MIC 100%, isolate QC, 48 hrs) was 4 µg/mL (≈ 8.69 µM) and the MIC50 (C. krusei; 24 h) was 2 µg/mL (≈ 4.34 µM). For the same compound, the MIC (C. krusei; 24 h) was 4 µg/mL (≈ 8.69 µM), the MIC50 (C. krusei; 48 h) was 4 µg/mL (≈ 8.69 µM) and the MIC (C. krusei; 48 h) was 4 µg/mL (≈ 8.69 µM). For the same compound, the MIC50 (C. glabrata; 24 h, isolate CG-1, 24 hrs) was 4 µg/mL (≈ 8.69 µM), the MIC50 (C. glabrata; 24 h, isolate CG-2, 24 hrs) was 4 µg/mL (≈ 8.69 µM) and the MIC50 (C. glabrata; 24 h, isolate CG-3, 24 hrs) was 4 µg/mL (≈ 8.69 µM). The MIC50 (C. glabrata; 24 h, isolate CG-4, 24 hrs) was 4 µg/mL (≈ 8.69 µM), the MIC50 (C. glabrata; 24 h, isolate CG-5, 24 hrs) was 4 µg/mL (≈ 8.69 µM) and the MIC50 (C. glabrata; 24 h, isolate CG-6, 24 hrs) was 4 µg/mL (≈ 8.69 µM). It also gave an MIC50 (C. glabrata; 24 h, isolate CG-7, 24 hrs) of 2 µg/mL (≈ 4.34 µM), an MIC50 (C. glabrata; 24 h, isolate CG-8, 24 hrs) of 4 µg/mL (≈ 8.69 µM) and an MIC50 (C. glabrata; 24 h, isolate CG-9, 24 hrs) of 2 µg/mL (≈ 4.34 µM). For the same compound, the MIC50 (C. glabrata; 24 h, isolate CG-10, 24 hrs) was 2 µg/mL (≈ 4.34 µM), the MIC (C. glabrata; 24 h) was 4 µg/mL (≈ 8.69 µM) and the MIC50 (C. glabrata; 48 h, isolate CG-1, 48 hrs) was 4 µg/mL (≈ 8.69 µM). It also gave an MIC50 (C. glabrata; 48 h, isolate CG-2, 48 hrs) of 4 µg/mL (≈ 8.69 µM), an MIC50 (C. glabrata; 48 h, isolate CG-3, 48 hrs) of 4 µg/mL (≈ 8.69 µM) and an MIC50 (C. glabrata; 48 h, isolate CG-4, 48 hrs) of 4 µg/mL (≈ 8.69 µM). For the same compound, the MIC50 (C. glabrata; 48 h, isolate CG-5, 48 hrs) was 4 µg/mL (≈ 8.69 µM), the MIC50 (C. glabrata; 48 h, isolate CG-6, 48 hrs) was 4 µg/mL (≈ 8.69 µM) and the MIC50 (C. glabrata; 48 h, isolate CG-7, 48 hrs) was 4 µg/mL (≈ 8.69 µM). For the same compound, the MIC50 (C. glabrata; 48 h, isolate CG-8, 48 hrs) was 4 µg/mL (≈ 8.69 µM), the MIC50 (C. glabrata; 48 h, isolate CG-9, 48 hrs) was 4 µg/mL (≈ 8.69 µM) and the MIC50 (C. glabrata; 48 h, isolate CG-10, 48 hrs) was 4 µg/mL (≈ 8.69 µM). For the same compound, the MIC (C. glabrata; 48 h) was 4 µg/mL (≈ 8.69 µM), the “MIC 100%” value (C. glabrata; isolate CG-1, 24 hrs) was 4 µg/mL (≈ 8.69 µM) and the “MIC 100%” value (C. glabrata; isolate CG-1, 48 hrs) was 4 µg/mL (≈ 8.69 µM). For the same compound, the “MIC 100%” value (C. glabrata; isolate CG-2, 24 hrs) was 4 µg/mL (≈ 8.69 µM), the “MIC 100%” value (C. glabrata; isolate CG-2, 48 hrs) was 4 µg/mL (≈ 8.69 µM) and the “MIC 100%” value (C. glabrata; isolate CG-4, 24 hrs) was 4 µg/mL (≈ 8.69 µM). The “MIC 100%” value (C. glabrata; isolate CG-4, 48 hrs) was 4 µg/mL (≈ 8.69 µM), the “MIC 100%” value (C. glabrata; isolate CG-5, 24 hrs) was 4 µg/mL (≈ 8.69 µM) and the “MIC 100%” value (C. glabrata; isolate CG-5, 48 hrs) was 4 µg/mL (≈ 8.69 µM). For the same compound, the “MIC 100%” value (C. glabrata; isolate CG-6, 24 hrs) was 4 µg/mL (≈ 8.69 µM), the “MIC 100%” value (C. glabrata; isolate CG-6, 48 hrs) was 4 µg/mL (≈ 8.69 µM) and the “MIC 100%” value (C. glabrata; isolate CG-7, 24 hrs) was 4 µg/mL (≈ 8.69 µM). For the same compound, the “MIC 100%” value (C. glabrata; isolate CG-7, 48 hrs) was 4 µg/mL (≈ 8.69 µM), the “MIC 100%” value (C. glabrata; isolate CG-8, 24 hrs) was 4 µg/mL (≈ 8.69 µM) and the “MIC 100%” value (C. glabrata; isolate CG-8, 48 hrs) was 4 µg/mL (≈ 8.69 µM). For the same compound, the “MIC 100%” value (C. glabrata; isolate CG-9, 24 hrs) was 4 µg/mL (≈ 8.69 µM), the “MIC 100%” value (C. glabrata; isolate CG-9, 48 hrs) was 4 µg/mL (≈ 8.69 µM) and the “MIC 100%” value (C. glabrata; isolate CG-10, 24 hrs) was 4 µg/mL (≈ 8.69 µM). For the same compound, the “MIC 100%” value (C. glabrata; isolate CG-10, 48 hrs) was 4 µg/mL (≈ 8.69 µM), the IC50 (Pneumocystis carinii; 24 h) was 41.3 µg/mL (≈ 89.7 µM) and the IC50 (Pneumocystis carinii; 48 h) was 18.3 µg/mL (≈ 39.8 µM). For the same compound, the IC50 (Pneumocystis carinii; 72 h) was 4.82 µg/mL (≈ 10.5 µM), the “Pm % Reduction in ATP/Vehicle Control” value (Pneumocystis carinii; Table 2, 1 μg/ml, 24 hours) was 0% and the “Pm % Reduction in ATP/Vehicle Control” value (Pneumocystis carinii; Table 2, 1 μg/ml, 48 hours) was 1.76%. The “Pm % Reduction in ATP/Vehicle Control” value (Pneumocystis carinii; Table 2, 1 μg/ml, 72 hours) was 0.49%, the “Pm % Reduction in ATP/Vehicle Control” value (Pneumocystis carinii; Table 2, 10 μg/ml, 24 hours) was 0% and the “Pm % Reduction in ATP/Vehicle Control” value (Pneumocystis carinii; Table 2, 10 μg/ml, 48 hours) was 16.68%. The “Pm % Reduction in ATP/Vehicle Control” value (Pneumocystis carinii; Table 2, 10 μg/ml, 72 hours) was 59.81%, the “Pm % Reduction in ATP/Vehicle Control” value (Pneumocystis carinii; Table 2, 100 μg/ml, 24 hours) was 97.31% and the “Pm % Reduction in ATP/Vehicle Control” value (Pneumocystis carinii; Table 2, 100 μg/ml, 48 hours) was 97.2%. For the same compound, the “Pm % Reduction in ATP/Vehicle Control” value (Pneumocystis carinii; Table 2, 100 μg/ml, 72 hours) was 99.04%.
